Experimental data taken from the supplement of paper PMC10307832.

How the values were obtained:
Assay in all cases: relative viability (nuclei count vs DMSO), 5 days (fraction); higher = more cells survive
VX-702 + Foretinib = compound: NC(=O)c1ccc(N(C(N)=O)c2c(F)cccc2F)nc1-c1ccc(F)cc1F [VX-702] + COc1cc2c(Oc3ccc(NC(=O)C4(C(=O)Nc5ccc(F)cc5)CC4)cc3F)ccnc2cc1OCCCN1CCOCC1 [Foretinib] (partner 0.25 µM)
In short: (§1)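 Lung cancer cell lines in 1536-well plates got either a single drug or a fixed anchor-drug dose together with five library-drug doses (not always all listed) in √10 steps, by pin tool, on the day after seeding. Nuclei were counted after 5 days, and relative viability is the treated-to-vehicle ratio of nuclei counts. Values are medians of duplicate plates.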

Dabrafenib + Dasatinib = compound: CC(C)(C)c1nc(-c2cccc(NS(=O)(=O)c3c(F)cccc3F)c2F)c(-c2ccnc(N)n2)s1 [Dabrafenib] + Cc1nc(Nc2ncc(C(=O)Nc3c(C)cccc3Cl)s2)cc(N2CCN(CCO)CC2)n1 [Dasatinib] (partner 0.075 µM)
In short: as §1

Dabrafenib + Alpelisib = compound: CC(C)(C)c1nc(-c2cccc(NS(=O)(=O)c3c(F)cccc3F)c2F)c(-c2ccnc(N)n2)s1 [Dabrafenib] + Cc1nc(NC(=O)N2CCC[C@H]2C(N)=O)sc1-c1ccnc(C(C)(C)C(F)(F)F)c1 [Alpelisib] (partner 2 µM)
In short: as §1

VX-702 + Crizotinib = compound: NC(=O)c1ccc(N(C(N)=O)c2c(F)cccc2F)nc1-c1ccc(F)cc1F [VX-702] + C[C@@H](Oc1cc(-c2cnn(C3CCNCC3)c2)cnc1N)c1c(Cl)ccc(F)c1Cl [Crizotinib] (partner 1 µM)
In short: as §1

UMC-11 showed a relative viability (VX-702 + Foretinib; first compound 0.02 µM) of 0.988, a relative viability (VX-702 + Foretinib; first compound 0.2 µM) of 0.843 and a relative viability (VX-702 + Foretinib; first compound 0.6325 µM) of 0.893. The relative viability (VX-702 + Foretinib; first compound 2 µM) was 1.21, the relative viability (Dabrafenib + Dasatinib; first compound 0.003 µM) was 0.43 and the relative viability (Dabrafenib + Dasatinib; first compound 0.009487 µM) was 0.462. For the same cell line, the relative viability (Dabrafenib + Dasatinib; first compound 0.03 µM) was 0.41, the relative viability (Dabrafenib + Dasatinib; first compound 0.09487 µM) was 0.446 and the relative viability (Dabrafenib + Dasatinib; first compound 0.3 µM) was 0.501. For the same cell line, the relative viability (Dabrafenib + Alpelisib; first compound 0.003 µM) was 1.08, the relative viability (Dabrafenib + Alpelisib; first compound 0.009487 µM) was 1.01 and the relative viability (Dabrafenib + Alpelisib; first compound 0.03 µM) was 1. For the same cell line, the relative viability (Dabrafenib + Alpelisib; first compound 0.09487 µM) was 0.937, the relative viability (Dabrafenib + Alpelisib; first compound 0.3 µM) was 0.935 and the relative viability (VX-702 + Crizotinib; first compound 0.02 µM) was 0.578. The relative viability (VX-702 + Crizotinib; first compound 0.2 µM) was 0.596, the relative viability (VX-702 + Crizotinib; first compound 0.6325 µM) was 0.512 and the relative viability (VX-702 + Crizotinib; first compound 2 µM) was 0.692.
